Assay results reported in PubChem BioAssay (NCI).
Several values for one entry are separate records, joined by “and”; a condition that tells them apart may be missing. Equal values may be shown once.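 96-well plates; 48 h exposure; 5 concentrations. Endpoints by linear interpolation between flanking doses. Not reached: highest tested concentration assigned. GI50 = concentration required for 50% inhibition of growth. TGI is the concentration that stops growth completely.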

What was measured:
Test in all cases: growth of human tumour cells (NCI), 48 h
DU-145 prostate = test system: DU-145 prostate
NCI-H460 lung = test system: NCI-H460 lung
RXF 393 renal = test system: RXF 393 renal
MDA-MB-231 breast = test system: MDA-MB-231 breast
UO-31 renal = test system: UO-31 renal
SR leukemia = test system: SR leukemia
UACC-257 melanoma = test system: UACC-257 melanoma
A498 renal = test system: A498 renal
EKVX NSCLC = test system: EKVX NSCLC
BT-549 breast = test system: BT-549 breast

| SMILES | TGI (DU-145 prostate) | TGI (NCI-H460 lung) | TGI (RXF 393 renal) | TGI (MDA-MB-231 breast) | TGI (UO-31 renal) | TGI (SR leukemia) | TGI (UACC-257 melanoma) | TGI (A498 renal) | TGI (EKVX NSCLC) | TGI (BT-549 breast) | GI50 (DU-145 prostate) | GI50 (NCI-H460 lung) | GI50 (RXF 393 renal) | GI50 (MDA-MB-231 breast) | GI50 (UO-31 renal) | GI50 (SR leukemia) | GI50 (UACC-257 melanoma) | GI50 (A498 renal) | GI50 (EKVX NSCLC) | GI50 (BT-549 breast) |
| --- | --- | --- | --- | --- | --- | --- | --- | --- | --- | --- | --- | --- | --- | --- | --- | --- | --- | --- | --- | --- |
| O=S1(=O)NC2CCC3NS(=O)(=O)NC4CCC(N1)N4S(=O)(=O)N23 (stereo not given) | > 100 µM | > 100 µM | > 100 µM | > 100 µM | > 100 µM | > 100 µM | > 100 µM | > 100 µM | > 100 µM | > 100 µM |  |  |  |  |  |  |  |  |  |  |
| CCC(C)[C@H](NC(=O)NC(=O)NC(=O)CI)C(=O)OC (stereo not given in full) | 28.4 µM | 39.4 µM | 15.2 µM | 30.7 µM | 3.28 µM | 4.15 µM | 25.8 µM | 30.5 µM | 30.6 µM | 22.4 µM | 15.2 µM | 17.4 µM | 4.51 µM | 13.6 µM | 1.73 µM | 1.37 µM | 12.6 µM | 16.2 µM | 16.7 µM | 10.6 µM |
| CCCCCCCCCCC/C=C\C[C@H](O)C/C=C1/C(=O)C=C[C@@H]1C/C=C\CCCC(=O)OC | 5.57 µM | 3.91 µM | 3.18 µM | 2.61 µM | 4.67 µM | 3.97 µM |  | 13.6 µM | 2.04 µM | 1.8 µM | 1.35 µM | 1.11 µM | 0.827 µM | 0.895 µM | 1.1 µM | 0.72 µM |  | 7.68 µM | 0.766 µM | 0.75 µM |
| CC1(C)CCCC(C)(C2CCC3(C)C2C(O)CC2C4(C)CCC(O)C(C)(C)C4C(O)CC23C)O1 (stereo not given) | 32.4 µM | 25.3 µM |  | 34.8 µM | 24.1 µM | 86.1 µM | 28.1 µM | 28.1 µM | 32.5 µM | 28.5 µM |  |  |  |  |  |  |  |  |  |  |
| CSc1ccc2c(c1)N(CCC1CCCCN1C)c1ccccc1S2 (stereo not given) | 17.9 µM and 14.2 µM | 17.9 µM and 4.28 µM | 15.4 µM and 5.23 µM | 5.99 µM and 6.11 µM | 14.5 µM and 15.4 µM | 17.2 µM and 12.4 µM | 11.6 µM and 6.3 µM | 22.2 µM and 28.7 µM | 23.5 µM and 22.7 µM | 27.7 µM and 10.4 µM | 6.06 µM and 4.15 µM | 4.52 µM and 2.03 µM | 3.2 µM and 1.56 µM | 2.08 µM and 2.4 µM | 3.26 µM and 3.61 µM | 4.45 µM and 3.41 µM | 3.08 µM and 2.14 µM | 4.99 µM and 13.2 µM | 7.93 µM and 8.06 µM | 12.7 µM and 3.23 µM |
| COc1ccc(CNC(C)C(=O)O)cc1 (stereo not given) | > 100 µM | > 100 µM | > 100 µM | > 100 µM | > 100 µM | > 100 µM | > 100 µM | > 100 µM | > 100 µM | > 100 µM |  |  |  |  |  |  |  |  |  |  |
| Cc1cc2nc3ccc(=[N+](C)C)cc-3sc2cc1N |  | 7.56 µM and 24.5 µM and 11.8 µM | 6.93 µM and 22.2 µM and 8.17 µM | 7.51 µM and 7.94 µM and 1.33 µM | 9.11 µM and 25.1 µM and 10.8 µM |  | 3.78 µM and 5.85 µM and 10.1 µM | 14.2 µM and 47.2 µM and 12 µM | 9.09 µM and 17.2 µM and 8.02 µM | 19.7 µM and 25.2 µM and 18.2 µM | 1.19 µM and 1.69 µM | 0.457 µM and 1.56 µM | 1.7 µM and 1.94 µM | 0.739 µM and 0.284 µM | 1.73 µM and 1.61 µM | 0.419 µM and 0.544 µM | 0.501 µM and 1.95 µM | 1.33 µM and 1.93 µM | 2.12 µM and 1.72 µM | 2.75 µM and 2.09 µM |
| COC(C(=O)C(O)C(C)O)C1Cc2cc3cc(OC4CC(OC5CC(O)C(O)C(C)O5)C(O)C(C)O4)c(C)c(O)c3c(O)c2C(=O)C1OC1CC(OC2CC(O)C(OC3CC(C)(O)C(O)C(C)O3)C(C)O2)C(O)C(C)O1 (stereo not given) | 112000 ng/mL and 127000 ng/mL |  |  | 112000 ng/mL and 43500 ng/mL |  | 112000 ng/mL and > 150000 ng/mL | 59.8 ng/mL and 27 ng/mL |  |  | 73.9 ng/mL | 27.4 ng/mL and 43.5 ng/mL | 11.2 ng/mL and 0.613 ng/mL | 11.2 ng/mL and 0.246 ng/mL | 27.9 ng/mL and 32 ng/mL | 72.5 ng/mL and 3.56 ng/mL | 11.2 ng/mL and 1910 ng/mL | 12.2 ng/mL and 1.15 ng/mL | 11.2 ng/mL and 0.0278 ng/mL | 18.8 ng/mL and 0.265 ng/mL | 15 ng/mL |
| CC(C)=CCC1=C(OCC(=O)O)C(=O)c2ccccc2C1=O | > 100 µM | > 100 µM | 81.1 µM | > 100 µM | > 100 µM | > 100 µM | 76 µM | > 100 µM | > 100 µM | > 100 µM |  |  |  |  |  |  |  |  |  |  |
| CCN(Cc1ccccc1Cl)c1ccc(CO)c(Cl)c1 | 27.8 µM | 11.1 µM | 20 µM | 26.2 µM | 24.9 µM | 45.1 µM | 0.461 µM | 0.0672 µM |  | 29.9 µM | 14 µM | 0.296 µM | 3.75 µM | 13.1 µM | 9.15 µM | 17.3 µM | 0.094 µM | < 0.0219 µM |  | 15.8 µM |
| Clc1cc2c(nn1)Nc1ccccc1S2 | > 100 µM | > 100 µM | > 100 µM | > 100 µM | > 100 µM | > 100 µM | > 100 µM | > 100 µM | > 100 µM | > 100 µM | > 100 µM | > 100 µM | > 100 µM | > 100 µM | > 100 µM | > 100 µM | > 100 µM | > 100 µM | 35.6 µM | > 100 µM |
| O=C1C(=O)c2ccccc2C(O)=C1CCCc1ccc(C2CCCC2)cc1 | 54.9 µM | 11.8 µM | 11.6 µM | 43.9 µM | 15.5 µM | 12.9 µM | 28.2 µM | 23 µM | 64.7 µM | 48.6 µM | 6.9 µM | 3.11 µM | 1.41 µM | 11.1 µM | 3.85 µM | 3.39 µM | 3.91 µM | 7.24 µM | 11.7 µM | 10.5 µM |
| CN1CC[C@]2(c3cccc(O)c3)CC(=O)/C(=C/c3ccccc3)[C@H]1C2 | 11.3 µM | 6.32 µM | 8.03 µM | 8.08 µM | 9.83 µM | 5.9 µM | 9.72 µM | 21.1 µM | 13.9 µM | 14.5 µM | 3.14 µM |  | 2.5 µM |  | 2 µM | 1.35 µM | 2.6 µM |  | 3.57 µM | 3.64 µM |
| O=C1C=CC(=Nc2ccccc2)c2ccccc21 | 3.14 µM | 13.8 µM | 23.2 µM | 11.3 µM | 23.3 µM | 37.1 µM | 8.39 µM | 39.4 µM | 12.9 µM | 28 µM |  |  |  |  |  |  |  |  |  |  |
| CCOc1ccc2c(C)cc(=O)oc2c1 | > 100 µM | > 100 µM | > 100 µM | > 100 µM | > 100 µM | > 100 µM | > 100 µM | > 100 µM | > 100 µM | > 100 µM |  |  |  |  |  |  |  |  |  |  |
